Experimental data taken from patent US11208408B2, “Method of controlling scale in aqueous systems” (NOURYON CHEMICALS INTERNATIONAL B.V., priority 2019, dated 2021).
Counter-ions that a name gives are not always drawn.

How the values were obtained:
[1] = Fluorescent signal of starting amine, monomers and polymers at pH 7 (Example 22); type: physicochemical; conditions: 45 ppb of amine or monomer
Procedure: The fluorescent signal for the starting N-(3-dimethylaminopropyl)-4-methoxy-1,8-naphthalilmide, the monomers from Monomer Example 3 and 3a (comparative) and the polymers of Polymer Example 20 (comparative) and Polymer Example 21 were measured at 10 ppm polymer and 45 ppb of N-(3-dimethylaminopropyl)-4-methoxy-1,8-naphthalilmide and monomers at pH 7.

[2] = Fluorescent signal of polymers diluted to 10 ppm at pH 9 (Shimadzu RF-6000 spectro fluorimeter); type: physicochemical; conditions: non-monomer intermediate at 59 ppb
Procedure: The polymer samples from Polymer Examples 1-4 each were diluted in water to 10 ppm and the pH was adjusted to 9, and the fluorescent signal was determined by excitation of the sample at the excitation wavelengths and measurement at the emission wavelengths as stated in Table 1 using a Shimadzu RF-6000 model spectro fluorimeter.
The fluorescence signal for the polymer of Example 1 at 10 ppm and at pH 9 was measured. Also, the fluorescence intensity of the intermediate N-(3-dimethylaminopropyl)-4-methoxy-1,8-naphthalilmide non-monomer intermediate used to synthesize the monomer used in Example 1 was measured at pH 9 and at 59 ppb. The 59 ppb was used because this is the amount of monomer that would have been present in 10 ppm of polymer.

Question: With “4-methoxy-N-(3-dimethylaminopropyl)-1,8-naphthalimide, 2-hydroxy-3-allyloxy propyl, quaternary salt [Monomer Example 3a, reference compound]” as the compound, how does the “Emission wavelength λ” value [1] read?
Answer: The value was 460 nm.

Question: What about the “Excitation wavelength λ” value [1] of the same compound?
Answer: The value was 376 nm.

Question: What about the Fluorescence intensity [1] of the same compound?
Answer: The Fluorescence intensity was 8312.

Question: For `C=CCOCC(O)C[N+](C)(C)CCCN1C(=O)c2cccc3c(OC)ccc(c23)C1=O` (stereo not drawn) [Monomer Example 3, 4-methoxy-N-(3-dimethylaminopropyl)-1,8-naphthalimide, 1 or 2-hydroxy-3-allyloxy propyl, quaternary salt], which “Emission wavelength λ” value [1] is on record?
Answer: The value was 460 nm.

Question: And the “Excitation wavelength λ” value [1]?
Answer: Its value is 376 nm.

Question: What about the Fluorescence intensity [1] of the same compound?
Answer: The Fluorescence intensity was 6774.

Question: For `COc1ccc2c3c(cccc13)C(=O)N(CCCN(C)C)C2=O` [N-(3-dimethylaminopropyl)-4-methoxy-1,8-naphthalimide], which “Emission wavelength λ” value [1] is on record?
Answer: Its value is 460 nm.

Question: And the “Excitation wavelength λ” value [1]?
Answer: The value was 376 nm.

Question: What about the Fluorescence intensity [1] of the same compound?
Answer: The Fluorescence intensity was 9850.

Question: And the “Emission wavelength λ” value [2]?
Answer: Its value is 462 nm.

Question: And the “Excitation wavelength λ” value [2]?
Answer: Its value is 376 nm.

Question: What about the Fluorescence intensity [2] of the same compound?
Answer: The Fluorescence intensity was 7788.
